Consider 19 compounds from patent publication US20250296938A1, “Compounds that Interact with the Ras Superfamily for the Treatment of Cancers, Inflammatory Diseases, Rasopathies, and Fibrotic Disease” (SHY Therapeutics, LLC, priority 2018, published 2025).

Molecules are shown by their SMILES.

The first experiment relates to IL-6. The experiment in a line: Mouse IL6 quantification assay, LPS-stimulated RAW 264.7 macrophages. Type of experiment: cell-based. The conditions noted are these: RAW264.7, 10 μM, LPS (100 ng/ml) added concurrently, 5 hours, RAW 264.7. Put shortly: (§1)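 RAW 264.7 cells, serum-starved overnight (0.5% FBS), were pretreated with compounds at 30 μM (0.3% DMSO) for 3 h, then stimulated with LPS 100 ng/ml for 16 h at 37 °C; alternatively, 10 μM compound was added together with LPS for 5 h. Secreted TNF-α and IL-6 were quantified in supernatants by sandwich ELISA.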
As to `Cn1ccc(-c2sc3nc(-c4nccn4C)nc(N[C@H]4C[C@@H](O)C4)c3c2-c2ccccc2)n1` [drawing 773], the inhibition at 10 µM fell in the range of 26 to 50%.
Compound `CO[C@H]1C[C@@H](Nc2nc(-c3ncc[nH]3)nc3sc(-c4ccn(C)n4)c(-c4ccccc4)c23)C1` [drawing 775] gave an inhibition at 10 µM of 76 to 100%.
Turning to `CO[C@H]1CC[C@@H](Nc2nc(-c3ncc[nH]3)nc3sc(-c4ccn(C)n4)c(-c4ccccc4)c23)C1` [drawing 776], the inhibition at 10 µM was 76 to 100%.
`CO[C@H]1CC[C@@H](Nc2nc(-c3nccn3C)nc3sc(-c4ccn(C(C)C)n4)c(-c4ccccc4)c23)C1` [drawing 777] gave an inhibition at 10 µM of 76 to 100%.
In turn, `COc1nc(-c2ccccn2)nc2c(-c3ccccn3)csc12` [drawing 778] returned an inhibition at 10 µM of 51 to 75%.
As for `CO[C@H]1C[C@@H](Nc2nc(-c3nccn3C)nc3sc(-c4ccn(C)n4)c(C)c23)C1` [drawing 779], the inhibition at 10 µM was 76 to 100%.
Turning to `CO[C@H]1CC[C@@H](Nc2nc(-c3nccn3C)nc3sc(-c4ccn(C)n4)c(C)c23)C1` [drawing 780], the inhibition at 10 µM is 76 to 100%.
As to `Cc1c(-c2ccn(C)n2)sc2nc(-c3nccn3C)nc(NCCCS(C)(=O)=O)c12` [drawing 781], the inhibition at 10 µM fell in the range of 1 to 25%.
For `Cc1c(-c2ccn(C)n2)sc2nc(-c3nccn3C)nc(NCCCC(=O)N(C)C)c12` [drawing 782], the inhibition at 10 µM was in the range of 1 to 25%.
In turn, `Cc1c(-c2ccn(C)n2)sc2nc(-c3nccn3C)nc(NCCOC(=O)N(C)C)c12` [drawing 783] had an inhibition at 10 µM of 51 to 75%.
Still for that read-out and setting: then `CO[C@H]1CC[C@@H](Nc2nc(-c3nccn3C)nc3sc(-c4ccn(C(C)C)n4)c(C)c23)C1` [drawing 784], with 51 to 75%; and `CO[C@H]1C[C@@H](Nc2nc(-c3nccn3C)nc3sc(C(=O)NC(C)C)c(-c4ccccc4)c23)C1` [drawing 785], with 1 to 25%; and `COCCNC(=O)c1sc2nc(-c3nccn3C)nc(N[C@H]3C[C@@H](OC)C3)c2c1-c1ccccc1` [drawing 786], with 26 to 50%.
`CO[C@H]1C[C@@H](Nc2nc(-c3nccn3C)nc3sc(C(=O)N4CCOCC4)c(-c4ccccc4)c23)C1` [drawing 787] came in with an inhibition at 10 µM of 1 to 25%.
`COC1CCN(C(=O)c2sc3nc(-c4nccn4C)nc(N[C@H]4C[C@@H](OC)C4)c3c2-c2ccccc2)C1` (some centres unmarked) [drawing 788] showed an inhibition at 10 µM of 0%.
Regarding `CO[C@H]1CC[C@@H](Nc2nc(-c3nccn3C)nc3sc(C(=O)NC(C)C)c(-c4ccccc4)c23)C1` [drawing 789], the inhibition at 10 µM was 51 to 75%.
Regarding `COCCNC(=O)c1sc2nc(-c3nccn3C)nc(N[C@@H]3CC[C@H](OC)C3)c2c1-c1ccccc1` [drawing 790], the inhibition at 10 µM lay within 51 to 75%.
The same measure, in the same setting: then `CO[C@H]1CC[C@@H](Nc2nc(-c3nccn3C)nc3sc(C(=O)N4CCCC4)c(-c4ccccc4)c23)C1` [drawing 791], with 1 to 25%; and `CO[C@H]1CC[C@@H](Nc2nc(-c3nccn3C)nc3sc(C(=O)N4CCOCC4)c(-c4ccccc4)c23)C1` [drawing 792], with 26 to 50%.

For the next experiment, the system named is TNF-α. Nature of the experiment: Mouse TNF alpha quantification assay, LPS-stimulated RAW 264.7 macrophages. Type of experiment: cell-based. To be noted: RAW264.7, 10 μM, LPS (100 ng/ml) added concurrently, 5 hours, RAW 264.7, read-out: TNFα % Inhibition. The method in brief: as §1
On to `Cn1ccc(-c2sc3nc(-c4nccn4C)nc(N[C@H]4C[C@@H](O)C4)c3c2-c2ccccc2)n1` [drawing 773], for which the inhibition at 10 µM was found to be 0%.
As to `CO[C@H]1C[C@@H](Nc2nc(-c3ncc[nH]3)nc3sc(-c4ccn(C)n4)c(-c4ccccc4)c23)C1` [drawing 775], the inhibition at 10 µM lay in the range of 1 to 25%.
For the compound `CO[C@H]1CC[C@@H](Nc2nc(-c3ncc[nH]3)nc3sc(-c4ccn(C)n4)c(-c4ccccc4)c23)C1` [drawing 776], the inhibition at 10 µM lay within 26 to 50%.
Regarding `CO[C@H]1CC[C@@H](Nc2nc(-c3nccn3C)nc3sc(-c4ccn(C(C)C)n4)c(-c4ccccc4)c23)C1` [drawing 777], the inhibition at 10 µM lay within 76 to 100%.
As for `COc1nc(-c2ccccn2)nc2c(-c3ccccn3)csc12` [drawing 778], the inhibition at 10 µM was 1 to 25%.
Regarding `CO[C@H]1C[C@@H](Nc2nc(-c3nccn3C)nc3sc(-c4ccn(C)n4)c(C)c23)C1` [drawing 779], the inhibition at 10 µM lay in the range of 1 to 25%.
Regarding `CO[C@H]1CC[C@@H](Nc2nc(-c3nccn3C)nc3sc(-c4ccn(C)n4)c(C)c23)C1` [drawing 780], the inhibition at 10 µM was 1 to 25%.
On to `Cc1c(-c2ccn(C)n2)sc2nc(-c3nccn3C)nc(NCCCS(C)(=O)=O)c12` [drawing 781], for which the inhibition at 10 µM is 1 to 25%.
On to `Cc1c(-c2ccn(C)n2)sc2nc(-c3nccn3C)nc(NCCCC(=O)N(C)C)c12` [drawing 782], for which the inhibition at 10 µM was 1 to 25%.
Take `Cc1c(-c2ccn(C)n2)sc2nc(-c3nccn3C)nc(NCCOC(=O)N(C)C)c12` [drawing 783]: the inhibition at 10 µM lay in the range of 26 to 50%.
In the case of `CO[C@H]1CC[C@@H](Nc2nc(-c3nccn3C)nc3sc(-c4ccn(C(C)C)n4)c(C)c23)C1` [drawing 784], the inhibition at 10 µM is 26 to 50%.
Consider `CO[C@H]1C[C@@H](Nc2nc(-c3nccn3C)nc3sc(C(=O)NC(C)C)c(-c4ccccc4)c23)C1` [drawing 785], for which the inhibition at 10 µM came to 0%.
Take `COCCNC(=O)c1sc2nc(-c3nccn3C)nc(N[C@H]3C[C@@H](OC)C3)c2c1-c1ccccc1` [drawing 786]: the inhibition at 10 µM came out at 0%.
Take `CO[C@H]1C[C@@H](Nc2nc(-c3nccn3C)nc3sc(C(=O)N4CCOCC4)c(-c4ccccc4)c23)C1` [drawing 787]: the inhibition at 10 µM is 1 to 25%.
Take `COC1CCN(C(=O)c2sc3nc(-c4nccn4C)nc(N[C@H]4C[C@@H](OC)C4)c3c2-c2ccccc2)C1` (some centres unmarked) [drawing 788]: the inhibition at 10 µM was 0%.
Still for that read-out and setting: with `CO[C@H]1CC[C@@H](Nc2nc(-c3nccn3C)nc3sc(C(=O)NC(C)C)c(-c4ccccc4)c23)C1` [drawing 789] the figure was 1 to 25%; with `COCCNC(=O)c1sc2nc(-c3nccn3C)nc(N[C@@H]3CC[C@H](OC)C3)c2c1-c1ccccc1` [drawing 790], 1 to 25%.
In the case of `CO[C@H]1CC[C@@H](Nc2nc(-c3nccn3C)nc3sc(C(=O)N4CCCC4)c(-c4ccccc4)c23)C1` [drawing 791], the inhibition at 10 µM lay within 1 to 25%.
Turning to `CO[C@H]1CC[C@@H](Nc2nc(-c3nccn3C)nc3sc(C(=O)N4CCOCC4)c(-c4ccccc4)c23)C1` [drawing 792], the inhibition at 10 µM fell in the range of 1 to 25%.
